Experimental findings from patent US9073885B2, “Vitamin D3 lactone derivatives” (Teijin Pharma Limited, priority 2003, dated 2015) are described below.

The test system of the assay is HL-60 cells. The experiment in a line: Vitamin D3 antagonist action: inhibition of HL-60 cell differentiation induced by 1α,25-dihydroxyvitamine D3 (NBT reducing activity). Format: cell-based. The following applies: Homo sapiens, HL-60, 96 h, inhibition of NBT reducing activity induced by 1×10^-8 M 1α,25-dihydroxyvitamine D3, 4 days. An excerpt:
The Vitamin D3 Antagonist Action Determined by Using the Induction of HL-60 Cell Differentiation by 1α,25-dihydroxyvitamine D3 as an Indicator
(1) HL-60 cells that were purchased from a cell bank (Japanese Cancer Research Resources Bank, Cell No. JCRB0085) were used. The cells were maintained as a frozen preservation stock to prevent changes in cellular characteristics by subculture. The stock was thawed before starting the experiment, and the cells which subsequently initiated subculture were used. The cells with subcultivation approximately over one month to a half year were used for the experiment. The subcultivation was performed by first centrifuging and collecting cells in suspension culture, and then diluting the collected cells by approximately a factor of 100 to a concentration of 1×10^4 to 2×10^4 cells/ml in a fresh culture medium. An RPMI-1640 medium with 10% fetal bovine serum was used as the culture medium. […]
(3) The induction of nitroblue tetrazolium (hereinafter referred to as NBT) reducing activity was used as an indicator of the induction of HL-60 cell differentiation. The NBT reducing activity was measured according to the procedures described below. […]

pIC50: −log10 of the molar value.

For `C=C1C(=O)OC(C[C@@H](C)[C@H]2CC[C@H]3/C(=C/C=C4/C[C@@H](O)C[C@H](O)C4=C)CCC[C@]23C)C1CCO` (stereo partly drawn) [Compound No. 114a, 20(R)-(tetrahydro-3-methylene-2-furanone-4-(2-hydroxyethyl)-5-yl)methyl-9,10-secopregna-5(Z),7(E),10(19)-triene-1α,3β-diol], the pIC50 – broadly, the negative decadic logarithm of the IC50, by convention in mol/L – was > 8.00.
